Experiments:
[1] = biological target: Adenosine receptor A1 (Homo sapiens) (UniProt P30542); test: Displacement of [3H]-DPCPX from human recombinant adenosine A1 receptor at 10 uM after 60 mins by scintillation counting analysis relative to control
[2] = biological target: Metabotropic glutamate receptor 7 (Rattus norvegicus) (UniProt P35400); test: Positive allosteric modulation of rat mGlu7 receptor expressed in HEK293 cells co-expressing Gai5 assessed as potentiation of L-AP4-induced calcium mobilization preincubated for 140 secs and treated with EC20 L-AP4 for 125 secs and followed by subsequent addition of EC80 L-AP4 by Fluo-4-AM dye based fluorescence assay relative to maximal induction of L-AP4; assay type: functional, cell-based; conditions: filed as positive allosteric modulator, time 140.0 sec
Chain of Metabotropic glutamate receptor 7 (Rattus norvegicus) (P35400 whole entry): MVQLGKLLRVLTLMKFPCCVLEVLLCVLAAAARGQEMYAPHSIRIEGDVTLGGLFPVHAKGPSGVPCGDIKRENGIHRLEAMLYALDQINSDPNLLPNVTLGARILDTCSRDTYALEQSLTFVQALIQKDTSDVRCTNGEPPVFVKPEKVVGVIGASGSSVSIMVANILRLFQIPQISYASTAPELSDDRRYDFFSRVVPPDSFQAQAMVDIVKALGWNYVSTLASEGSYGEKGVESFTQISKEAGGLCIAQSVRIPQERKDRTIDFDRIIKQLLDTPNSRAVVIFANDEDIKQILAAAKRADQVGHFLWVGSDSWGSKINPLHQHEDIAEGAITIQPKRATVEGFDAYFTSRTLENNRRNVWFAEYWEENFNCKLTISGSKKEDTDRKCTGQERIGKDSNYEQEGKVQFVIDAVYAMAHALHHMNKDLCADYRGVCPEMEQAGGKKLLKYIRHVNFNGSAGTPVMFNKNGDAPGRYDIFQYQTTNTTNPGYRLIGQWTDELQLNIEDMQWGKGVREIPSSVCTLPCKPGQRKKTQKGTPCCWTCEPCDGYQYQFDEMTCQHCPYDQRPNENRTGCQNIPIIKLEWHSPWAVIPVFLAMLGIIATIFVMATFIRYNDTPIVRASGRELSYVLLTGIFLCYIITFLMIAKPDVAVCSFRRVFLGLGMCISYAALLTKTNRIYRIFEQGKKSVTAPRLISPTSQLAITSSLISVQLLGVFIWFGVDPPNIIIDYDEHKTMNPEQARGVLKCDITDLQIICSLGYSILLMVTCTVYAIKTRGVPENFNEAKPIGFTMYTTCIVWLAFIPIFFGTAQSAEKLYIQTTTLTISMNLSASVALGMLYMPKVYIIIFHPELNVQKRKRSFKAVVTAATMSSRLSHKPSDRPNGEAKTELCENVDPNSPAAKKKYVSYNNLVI

[3] = biological target: Alpha-1A adrenergic receptor (Homo sapiens) (UniProt P35348); test: Displacement of [3H]-Prazosin from human recombinant adrenergic alpha 1A receptor at 10 uM incubated for 60 mins by scintillation counting analysis relative to control
Chain of Alpha-1A adrenergic receptor (Homo sapiens) (P35348 whole entry): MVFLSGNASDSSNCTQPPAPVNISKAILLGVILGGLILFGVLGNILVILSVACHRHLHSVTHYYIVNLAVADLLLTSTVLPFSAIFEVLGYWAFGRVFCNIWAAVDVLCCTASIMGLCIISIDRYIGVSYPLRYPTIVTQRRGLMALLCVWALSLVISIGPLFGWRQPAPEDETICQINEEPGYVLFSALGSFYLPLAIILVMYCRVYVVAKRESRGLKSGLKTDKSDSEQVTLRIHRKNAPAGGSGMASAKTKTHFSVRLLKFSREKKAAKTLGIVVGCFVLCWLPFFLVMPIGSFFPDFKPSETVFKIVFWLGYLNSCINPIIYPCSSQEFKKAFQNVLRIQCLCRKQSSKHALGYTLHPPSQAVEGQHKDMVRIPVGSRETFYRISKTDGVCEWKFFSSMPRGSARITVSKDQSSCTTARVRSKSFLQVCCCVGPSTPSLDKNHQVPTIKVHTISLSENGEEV

[4] = biological target: Alpha-1B adrenergic receptor (Homo sapiens) (UniProt P35368); test: Displacement of [3H]-Prazosin from human recombinant adrenergic alpha 1B receptor at 10 uM incubated for 60 mins by scintillation counting analysis relative to control
[5] = biological target: Alpha-1D adrenergic receptor (Homo sapiens) (UniProt P25100); test: Displacement of [3H]-Prazosin from human recombinant adrenergic alpha 1D receptor at 10 uM incubated for 60 mins by scintillation counting analysis relative to control
[6] = biological target: Beta-2 adrenergic receptor (Homo sapiens) (UniProt P07550); test: Displacement of [3H]-(-)CGP 12177 from human recombinant adrenergic beta 2 receptor at 10 uM incubated for 120 mins by scintillation counting analysis relative to control
[7] = biological target: Androgen receptor (Homo sapiens) (UniProt P10275); test: Displacement of [3H]-methyltrienolone from human androgen receptor at 10 uM incubated for 1440 mins by scintillation counting analysis relative to control
Chain of Androgen receptor (Homo sapiens) (P10275 whole entry): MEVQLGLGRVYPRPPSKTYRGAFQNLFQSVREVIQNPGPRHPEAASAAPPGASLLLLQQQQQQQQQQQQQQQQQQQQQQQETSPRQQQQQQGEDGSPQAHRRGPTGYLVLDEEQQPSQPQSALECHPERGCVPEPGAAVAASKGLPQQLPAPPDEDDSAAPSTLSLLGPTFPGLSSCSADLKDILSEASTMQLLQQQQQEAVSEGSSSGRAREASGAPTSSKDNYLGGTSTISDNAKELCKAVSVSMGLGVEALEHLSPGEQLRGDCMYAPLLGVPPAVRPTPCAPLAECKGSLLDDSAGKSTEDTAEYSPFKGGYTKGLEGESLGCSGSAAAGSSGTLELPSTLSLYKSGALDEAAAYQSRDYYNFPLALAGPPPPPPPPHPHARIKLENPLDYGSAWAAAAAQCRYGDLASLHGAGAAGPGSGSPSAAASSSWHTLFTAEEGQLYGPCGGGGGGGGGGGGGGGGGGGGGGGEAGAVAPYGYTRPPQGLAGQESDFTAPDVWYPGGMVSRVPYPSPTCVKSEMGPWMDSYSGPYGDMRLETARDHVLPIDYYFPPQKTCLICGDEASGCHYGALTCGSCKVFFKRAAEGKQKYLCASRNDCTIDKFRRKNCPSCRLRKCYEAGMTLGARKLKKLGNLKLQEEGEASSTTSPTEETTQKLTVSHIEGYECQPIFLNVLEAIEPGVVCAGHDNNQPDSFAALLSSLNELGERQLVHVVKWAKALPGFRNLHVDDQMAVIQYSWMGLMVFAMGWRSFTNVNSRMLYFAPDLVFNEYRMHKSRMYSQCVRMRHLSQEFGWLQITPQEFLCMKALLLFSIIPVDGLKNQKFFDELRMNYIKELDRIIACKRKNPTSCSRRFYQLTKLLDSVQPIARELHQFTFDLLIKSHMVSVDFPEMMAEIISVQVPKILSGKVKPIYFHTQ

[8] = species on record: Rattus norvegicus; test: Displacement of [3H]-Nitrendipine from L-type calcium channel dihydropyridine binding site in rat brain at 10 uM incubated for 90 mins by scintillation counting analysis relative to control; assay type: tissue-based
[9] = biological target: D(2) dopamine receptor (Homo sapiens) (UniProt P14416); test: Displacement of [3H]7-OH-DPAT from human recombinant dopamine D2S receptor at 10 uM after 60 mins by scintillation counting analysis relative to control
[10] = biological target: Gamma-aminobutyric acid type B receptor subunit 1 (Homo sapiens) (UniProt Q9UBS5); test: Displacement of [3H]-CGP54626 from human recombinant GABAB1A channel at 10 uM incubated for 180 mins by scintillation counting analysis relative to control
[11] = biological target: Glucocorticoid receptor (Homo sapiens) (UniProt P04150); test: Displacement of [3H]-Dexamethasone from human Glucocorticoid receptors at 10 uM incubated for 360 mins by scintillation counting analysis relative to control
[12] = biological target: Glutamate NMDA receptor (Rattus norvegicus) (UniProt P35439+Q00959+Q00960+Q00961+Q62645+Q8VHN2+Q9R1M7); test: Displacement of [3H]-CGP39653 from NMDA glutamate receptor in rat at 10 uM incubated for 20 mins by scintillation counting analysis relative to control
[13] = species on record: Rattus norvegicus; test: Displacement of [3H]-TCP from NMDA glutamate receptor phencyclidine binding site in rat at 10 uM incubated for 45 mins by scintillation counting analysis relative to control
[14] = biological target: Interleukin-1 receptor type 1 (Homo sapiens) (UniProt P14778); test: Displacement of [125I]-Interleukin 1beta from human interleukin IL-1 R1 receptor at 10 uM incubated for 120 mins by scintillation counting analysis relative to control
[15] = biological target: Melatonin receptor type 1A (Homo sapiens) (UniProt P48039); test: Displacement of [125I][…] from human recombinant MT1 receptor at 10 uM after 240 mins by scintillation counting analysis relative to control
[16] = biological target: Muscarinic acetylcholine receptor M2 (Homo sapiens) (UniProt P08172); test: Displacement of [3H]AF-DX 384 from human recombinant M2 receptor at 10 uM after 60 mins by scintillation counting analysis relative to control
Chain of Muscarinic acetylcholine receptor M2 (Homo sapiens) (P08172 whole entry): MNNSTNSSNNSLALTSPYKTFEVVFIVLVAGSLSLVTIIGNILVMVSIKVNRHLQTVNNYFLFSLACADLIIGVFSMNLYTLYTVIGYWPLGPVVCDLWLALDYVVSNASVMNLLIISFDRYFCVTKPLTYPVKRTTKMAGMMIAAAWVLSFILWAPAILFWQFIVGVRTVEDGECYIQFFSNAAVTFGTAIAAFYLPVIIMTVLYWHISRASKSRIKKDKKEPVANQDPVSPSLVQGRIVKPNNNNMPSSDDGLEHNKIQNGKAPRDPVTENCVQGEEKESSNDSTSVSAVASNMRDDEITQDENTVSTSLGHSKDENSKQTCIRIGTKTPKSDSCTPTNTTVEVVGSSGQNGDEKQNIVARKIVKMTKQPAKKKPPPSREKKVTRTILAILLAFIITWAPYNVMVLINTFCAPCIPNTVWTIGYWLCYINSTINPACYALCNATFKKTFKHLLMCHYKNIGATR

[17] = biological target: Muscarinic acetylcholine receptor M3 (Homo sapiens) (UniProt P20309); test: Displacement of [3H]4-DAMP from human recombinant M3 receptor at 10 uM after 60 mins by scintillation counting analysis relative to control
[18] = biological target: Platelet-activating factor receptor (Homo sapiens) (UniProt P25105); test: Displacement of [3H]-C18-PAF from human PAF receptor at 10 uM incubated for 180 mins by scintillation counting analysis relative to control
Chain of Platelet-activating factor receptor (Homo sapiens) (P25105 whole entry): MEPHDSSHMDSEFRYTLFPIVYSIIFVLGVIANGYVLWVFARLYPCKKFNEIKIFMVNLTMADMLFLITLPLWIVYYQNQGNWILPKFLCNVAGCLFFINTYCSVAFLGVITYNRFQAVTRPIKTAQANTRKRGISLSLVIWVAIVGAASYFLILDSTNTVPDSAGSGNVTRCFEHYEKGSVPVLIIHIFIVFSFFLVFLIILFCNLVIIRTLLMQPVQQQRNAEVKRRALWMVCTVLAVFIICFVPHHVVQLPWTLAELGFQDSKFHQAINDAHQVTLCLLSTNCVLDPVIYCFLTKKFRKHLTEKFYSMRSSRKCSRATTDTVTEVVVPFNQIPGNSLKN

[19] = biological target: Prostaglandin E2 receptor EP4 subtype (Homo sapiens) (UniProt P35408); test: Displacement of [3H]-Prostaglandin E2 from human recombinant prostanoid receptor EP4 at 10 uM incubated for 120 mins by scintillation counting analysis relative to control
[20] = biological target: P2X receptor (Rattus norvegicus) (UniProt P51579+P49653+P51578+Q64663+P47824+P51577+P49654); test: Displacement of [3H]alpha, beta-methylene ATP from P2X receptor in rat urinary bladder at 10 uM incubated for 120 mins by scintillation counting analysis relative to control
[21] = species on record: Rattus norvegicus; test: Displacement of [3H]-Rolipram from phosphodiesterases PDE4 rolipram binding site in rat at 10 uM incubated for 60 mins by radioligand binding assay relative to control
[22] = biological target: 5-hydroxytryptamine receptor 1A (Homo sapiens) (UniProt P08908); test: Displacement of [3H]8-OH-DPAT from recombinant human 5-HT1A receptor at 10 uM after 60 mins by scintillation counting analysis relative to control
Chain of 5-hydroxytryptamine receptor 1A (Homo sapiens) (P08908 whole entry): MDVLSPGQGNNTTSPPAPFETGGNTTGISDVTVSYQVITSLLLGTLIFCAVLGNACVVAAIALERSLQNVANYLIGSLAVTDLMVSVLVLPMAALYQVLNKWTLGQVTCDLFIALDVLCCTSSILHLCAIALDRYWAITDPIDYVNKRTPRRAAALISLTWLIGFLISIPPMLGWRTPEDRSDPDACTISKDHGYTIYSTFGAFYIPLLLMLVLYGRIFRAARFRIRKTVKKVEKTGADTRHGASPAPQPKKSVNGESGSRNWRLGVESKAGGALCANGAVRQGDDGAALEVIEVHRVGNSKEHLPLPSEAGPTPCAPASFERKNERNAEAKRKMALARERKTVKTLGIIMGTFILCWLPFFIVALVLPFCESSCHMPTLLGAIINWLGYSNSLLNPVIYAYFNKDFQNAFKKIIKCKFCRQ

[23] = biological target: 5-hydroxytryptamine receptor 2B (Homo sapiens) (UniProt P41595); test: Displacement of [125I]+/-DOI from human recombinant 5-HT2B receptor at 10 uM after 60 mins by scintillation counting analysis relative to control
[24] = biological target: Sigma non-opioid intracellular receptor 1 (Homo sapiens, UniProt Q99720); test: Displacement of [3H]-Pentazocine from human recombinant sigma 1 receptor at 10 uM incubated for 120 mins by scintillation counting analysis relative to control
Chain of Sigma non-opioid intracellular receptor 1 (Q99720 whole entry): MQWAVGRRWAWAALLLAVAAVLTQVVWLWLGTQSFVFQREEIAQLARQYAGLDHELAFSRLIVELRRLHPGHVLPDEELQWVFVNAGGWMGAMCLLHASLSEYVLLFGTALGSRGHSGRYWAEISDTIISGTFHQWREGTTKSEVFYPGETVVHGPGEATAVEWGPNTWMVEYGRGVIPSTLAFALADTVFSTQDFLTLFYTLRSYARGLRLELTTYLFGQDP

[25] = species on record: Rattus norvegicus; test: Displacement of [3H]-Batrachotoxinin from rat sodium channel site 2 at 10 uM incubated for 60 mins by scintillation counting analysis relative to control
[26] = biological target: Substance-P receptor (Homo sapiens) (UniProt P25103); test: Displacement of [125I]-Substance P LYS3 from human recombinant tachykinin NK1 receptor at 10 uM incubated for 30 mins by scintillation counting analysis relative to control
[27] = biological target: Sodium-dependent noradrenaline transporter (Homo sapiens) (UniProt P23975); test: Displacement of […] from recombinant human norepinephrine transporter at 10 uM after 120 mins by scintillation counting analysis relative to control
Chain of Sodium-dependent noradrenaline transporter (Homo sapiens) (P23975 whole entry): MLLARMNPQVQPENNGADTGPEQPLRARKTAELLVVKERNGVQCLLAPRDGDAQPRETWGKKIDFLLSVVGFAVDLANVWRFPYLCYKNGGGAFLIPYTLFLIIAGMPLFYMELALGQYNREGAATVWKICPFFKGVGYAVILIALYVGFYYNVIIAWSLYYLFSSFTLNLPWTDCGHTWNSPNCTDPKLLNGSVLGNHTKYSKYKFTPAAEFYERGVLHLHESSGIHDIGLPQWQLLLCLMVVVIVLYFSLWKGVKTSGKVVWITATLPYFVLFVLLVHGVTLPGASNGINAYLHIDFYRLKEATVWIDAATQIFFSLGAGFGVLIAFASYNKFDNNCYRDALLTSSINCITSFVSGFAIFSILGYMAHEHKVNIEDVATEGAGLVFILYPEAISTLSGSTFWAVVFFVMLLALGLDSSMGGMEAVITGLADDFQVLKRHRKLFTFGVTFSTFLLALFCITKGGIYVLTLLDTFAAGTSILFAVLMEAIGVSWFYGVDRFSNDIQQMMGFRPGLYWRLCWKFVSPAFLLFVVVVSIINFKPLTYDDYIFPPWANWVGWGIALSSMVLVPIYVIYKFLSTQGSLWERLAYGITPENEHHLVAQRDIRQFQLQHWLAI

[28] = biological target: Sodium-dependent serotonin transporter (Homo sapiens) (UniProt P31645); test: Displacement of [3H]-imipramine from recombinant human 5-HT transporter at 10 uM after 60 mins by scintillation counting relative to control
Chain of Sodium-dependent serotonin transporter (Homo sapiens) (P31645 whole entry, looked up): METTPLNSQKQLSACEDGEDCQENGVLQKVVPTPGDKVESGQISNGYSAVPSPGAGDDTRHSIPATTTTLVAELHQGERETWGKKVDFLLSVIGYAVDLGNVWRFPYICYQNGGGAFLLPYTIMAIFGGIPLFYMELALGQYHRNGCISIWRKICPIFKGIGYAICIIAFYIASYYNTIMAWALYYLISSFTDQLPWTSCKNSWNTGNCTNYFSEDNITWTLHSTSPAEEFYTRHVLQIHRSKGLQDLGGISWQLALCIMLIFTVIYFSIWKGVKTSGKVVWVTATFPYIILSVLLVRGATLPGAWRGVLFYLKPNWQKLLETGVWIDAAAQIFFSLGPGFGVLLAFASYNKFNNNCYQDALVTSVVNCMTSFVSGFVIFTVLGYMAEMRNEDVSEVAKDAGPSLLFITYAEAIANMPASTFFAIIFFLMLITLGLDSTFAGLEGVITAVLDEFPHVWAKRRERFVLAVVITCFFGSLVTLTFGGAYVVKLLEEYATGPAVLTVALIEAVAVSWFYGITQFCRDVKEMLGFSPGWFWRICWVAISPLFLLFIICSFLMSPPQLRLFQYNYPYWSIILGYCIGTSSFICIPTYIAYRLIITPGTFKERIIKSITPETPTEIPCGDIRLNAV

[29] = Fraction unbound in mouse plasma at 5 uM incubated for 4 hrs by equilibrium dialysis based LC-MS/MS analysis; assay type: ADME, cell-free

With COc1cccc2c(N3CCN(c4ccccc4F)CC3)c(C#N)cnc12 the inhibition [1] was under 50%, the Activity [2] was 85.1% and the Activity ([2]; tested as the 2H-labelled form) was 73%. For the same compound, the inhibition [3] was under 50%, the inhibition [4] was under 50% and the inhibition [5] was under 50%. For the same compound, the inhibition [6] was under 50%, the inhibition [7] was under 50% and the inhibition [8] was under 50%. The inhibition [9] was under 50%, the inhibition [10] was under 50% and the inhibition [11] was under 50%. For the same compound, the inhibition [12] was under 50%, the inhibition [13] was under 50% and the inhibition [14] was under 50%. It also gave an inhibition [15] of under 50%, an inhibition [16] of under 50% and an inhibition [17] of under 50%. It also gave an inhibition [18] of under 50%, an inhibition [19] of under 50% and an inhibition [20] of under 50%. The inhibition [21] was under 50%, the inhibition [22] was under 50% and the inhibition [23] was under 50%. The inhibition [24] was under 50%, the inhibition [25] was under 50% and the inhibition [26] was under 50%. The inhibition [27] was under 50%, the inhibition [28] was under 50% and the fraction unbound at 4 h, 5 µM [29] was 0.051.

With COc1cc(F)cc2c(N3CCN(c4ccccc4F)CC3)c(C#N)cnc12 the inhibition ([1]; tested as the 2H-labelled form) was under 50%, the Activity [2] was 98% and the Activity ([2]; tested as the 2H-labelled form) was 98%. The inhibition ([3]; tested as the 2H-labelled form) was under 50%, the inhibition ([4]; tested as the 2H-labelled form) was under 50% and the inhibition ([5]; tested as the 2H-labelled form) was under 50%. For the same compound, the inhibition ([6]; tested as the 2H-labelled form) was under 50%, the inhibition ([7]; tested as the 2H-labelled form) was under 50% and the inhibition ([8]; tested as the 2H-labelled form) was under 50%. The inhibition ([9]; tested as the 2H-labelled form) was under 50%, the inhibition ([10]; tested as the 2H-labelled form) was under 50% and the inhibition ([11]; tested as the 2H-labelled form) was under 50%. It also gave an inhibition ([12]; tested as the 2H-labelled form) of under 50%, an inhibition ([13]; tested as the 2H-labelled form) of under 50% and an inhibition ([14]; tested as the 2H-labelled form) of under 50%. The inhibition ([15]; tested as the 2H-labelled form) was under 50%, the inhibition ([16]; tested as the 2H-labelled form) was under 50% and the inhibition ([17]; tested as the 2H-labelled form) was under 50%. For the same compound, the inhibition ([18]; tested as the 2H-labelled form) was under 50%, the inhibition ([19]; tested as the 2H-labelled form) was under 50% and the inhibition ([20]; tested as the 2H-labelled form) was under 50%. For the same compound, the inhibition ([21]; tested as the 2H-labelled form) was under 50%, the inhibition ([22]; tested as the 2H-labelled form) was under 50% and the inhibition ([23]; tested as the 2H-labelled form) was under 50%. The inhibition ([24]; tested as the 2H-labelled form) was 77%, the inhibition ([25]; tested as the 2H-labelled form) was under 50% and the inhibition ([26]; tested as the 2H-labelled form) was under 50%. It also gave an inhibition ([27]; tested as the 2H-labelled form) of under 50%, an inhibition ([28]; tested as the 2H-labelled form) of under 50% and a fraction unbound at 4 h, 5 µM [29] of 0.012.

From ChEMBL document CHEMBL4665820, “Discovery of VU6027459: A First-in-Class Selective and CNS Penetrant mGlu Positive Allosteric Modulator Tool Compound” (ACS Med Chem Lett, 2020)
